Entries after “also recorded” stand apart in the source; their conditions may differ.

The conditions of data set [1]: cited from earlier work.
Data set [2] in a line: Raloxifene pharmacokinetics. Type of data set: in vivo. How it is done: The recommended dosage is one 60 mg tablet daily. […]. […].
The conditions of data set [3]: fast-dispersing tablets 50 mg with 1% to 2% alkylsaccharide.
For data set [4] the following is noted: formulations specifically optimized for oral delivery; cited from earlier work.
The conditions of data set [5]: aqueous liquid with SDS and an organic acid; cited from earlier work.
Data set [6] has as its system blood glucose. The experiment in a line: Oral liraglutide with Intravail A3, blood glucose under dietary sugar challenge. The following applies: Intravail A3 (FIG. 11). The class given is in vivo, human.
Procedure: Procedure was as follows. […] Composition was mixed with disposable plastic dropper. 40 grams of dietary sugar was ingested and 60 minutes allowed to pass. Blood glucose was measured (upper arm just above elbow on left arm) using meter=To. Deposit composition on back of tongue and swallow. Blood glucose level was measured and recorded at T=10, 20, 30, 40, 55, 70, 80 and 90 min.
The conditions of data set [7]: 10 mg fast-dispersing tablet with alkylsaccharide, buccal.
The nature of a further data set: clinical. The following applies: human, in vivo.
The conditions of data set [8]: whole-swallowed tablet, oral; cited from earlier work.
A further data set deals with human nasal epithelium. Kind of data set: Nasal mucosa irritation. To be noted: 47 days.
Data set [9] in a line: Oral phenylephrine tablet bioavailability in a canine model. The class given is in vivo, dog. The following applies: compressed tablets. Here is the method:
In a canine model, subjects were dosed orally with various phenylephrine (PE) tablet formulations, and blood samples were taken to determine the rate of parent phenyl ethyl phenylephrine absorption. Blood levels of parent phenylephrine were measured. Three subject groups were created with each alkylsaccharide test group containing five subjects in each test group. All subject groups received 10 mg of phenylephrine as a single tablet. Each subject was in the fasting state for overnight and two hours post dose. Blood samples were taken at pre-dose, 5, 10, 15, 30, 45 min., 1, 2, and 3 hours.
Comparator was the standard 30 mg (total weight including excipients) phenylephrine tablet was no absorption enhancer. Group number 2 tablets contain the alkylsaccharide designated A3, which is n-dodecyl-beta-D-maltoside in the amounts of 2.5 mg, 5 mg, and 7.5 mg, respectively. Group number three tablets contain the alkylsaccharide designated B3, which is sucrose monododecanoate, in the amounts of 5 mg, 10 mg, and 20 mg, respectively.

For data set [10] the following is noted: cited from earlier work. This is another data set of the same source.
Data set [11] relates to blood glucose. Kind of data set: Ocular administration of glucagon plus surfactant, blood glucose in rats. Type of data set: in vivo, rat. To be noted: eye drops, 0.5% surfactant plus glucagon (30 μg).
Data set [12] deals with blood glucose. To be noted: previous studies; cited from earlier work.
Another data set relates to food intake. The following applies: injection, on average; cited from earlier work.
Another data set relates to mucociliary surfaces. The following applies: far below concentrations used in intranasal formulations; cited from earlier work.

Turning to `O=C(c1ccc(OCCN2CCCCC2)cc1)c1c(-c2ccc(O)cc2)sc2cc(O)ccc12` [raloxifene], the water solubility result in [1] is recorded as “approx. 0.25 mg/L”. Moreover, the “circulating inactive raloxifene glucuronide” value in [2] (fast-dispersing tablet 10 mg or less, 0.5% to 5% dodecyl maltoside, buccal) was “less circulating inactive raloxifene glucuronide”. For the same compound, in data set [2] (human, in vivo, fast-dispersing 60 mg tablet (without alkylsaccharide), read-out: absolute bioavailability), the bioavailability is approximately 2%.

As to `CN(C)CCOC(c1ccccc1)c1ccccc1` [Diphenhydramine], in [3], the onset of action result is “more rapid onset of action”.

Turning to “Parathyroid hormone: parathyroid hormone”, the oral bioavailability in data set [4] was 2.1%.

In the case of Calcitonin: calcitonin, the stability entry in [5] is recorded as “at least 6 months”.

Turning to `CCCCCCCCCCCCCCCC(=O)N[C@@H](CCC(=O)NCCCC[C@H](NC(=O)[C@H](C)NC(=O)[C@H](C)NC(=O)[C@H](CCC(N)=O)NC(=O)CNC(=O)[C@H](CCC(=O)O)NC(=O)[C@H](CC(C)C)NC(=O)[C@H](Cc1ccc(O)cc1)NC(=O)[C@H](CO)NC(=O)[C@H](CO)NC(=O)[C@@H](NC(=O)[C@H](CC(=O)O)NC(=O)[C@H](CO)NC(=O)[C@@H](NC(=O)[C@H](Cc1ccccc1)NC(=O)[C@@H](NC(=O)CNC(=O)[C@H](CCC(=O)O)NC(=O)[C@H](C)NC(=O)[C@@H](N)Cc1cnc[nH]1)[C@@H](C)O)[C@@H](C)O)C(C)C)C(=O)N[C@@H](CCC(=O)O)C(=O)N[C@@H](Cc1ccccc1)C(=O)N[C@H](C(=O)N[C@@H](C)C(=O)N[C@@H](Cc1c[nH]c2ccccc12)C(=O)N[C@@H](CC(C)C)C(=O)N[C@H](C(=O)N[C@@H](CCCNC(=N)N)C(=O)NCC(=O)N[C@@H](CCCNC(=N)N)C(=O)NCC(=O)O)C(C)C)[C@@H](C)CC)C(=O)O` [Liraglutide], in the data set with blood glucose [6], the dose response result was “positive dose response”.

For the compound `Cc1cc2c(s1)Nc1ccccc1N=C2N1CCN(C)CC1` [olanzapine], the first-pass effect metabolism result in data set [7] is given as “substantially reduced first-pass effect metabolism”. In “clinical” (10 mg), the Tmax lay in the range of 0.25 to 0.75 h. Also, in “clinical” (po), the time of peak concentration (Tmax) was approximately 6 h and the hepatic extraction ratio is approximately 0.4. For the same compound, the “time to peak concentrations” value in data set [8] was “approximately 6 hours”.

In the case of `CCCCCCCCCCCC(=O)OC[C@H]1O[C@H](O[C@]2(CO)O[C@H](CO)[C@@H](O)[C@@H]2O)[C@H](O)[C@@H](O)[C@@H]1O` [sucrose dodecanoate, sucrose monododecanoate], the “irritation of nasal epithelium” value with human nasal epithelium is “no observable irritation was detected”. In data set [9], the “increase of oral bioavailability of phenylephrine” value was “up to 50%”. Besides, the “amount consumable without observable adverse effect” value in [10] (70 kilogram person) is listed as 1400-2100 grams per day. In addition, the “acceptable daily intake for humans” value in data set [10] (about 1% of the NOAEL) was 14-21 grams per day. Besides, the NOAEL in data set [10] (in vivo) is recorded as 20-30 grams/kilogram/day.

Turning to `CC1(C)[C@@H](O[C@@H]2OC[C@H](O[C@@H]3OC[C@@H](O)[C@H](O)[C@H]3O)[C@H](O[C@H]3O[C@H](CO)[C@@H](O)[C@H](O)[C@H]3O)[C@H]2O[C@@H]2O[C@H](CO)[C@@H](O)[C@H](O)[C@H]2O[C@H]2O[C@H](CO)[C@@H](O)[C@H](O)[C@H]2O)CC[C@]2(C)[C@H]3CCC45OCC6(CC[C@@](C)(C=O)C[C@@H]64)[C@H](O)C[C@@]5(C)[C@]3(C)CC[C@@H]12` (stereo partly drawn) [saponin, reference compound], the “effect on ocular glucagon absorption / blood D-glucose” value with blood glucose [11] is listed as “effective; also recorded: rises significantly”. Further, in the data set on blood glucose [12], the “stimulation of insulin absorption from the eye” value was “stimulated”.

As for “PYY: gut hormone fragment peptide PYY3-36”, the “reduction of food eaten” value in the data set with food intake is 30%.

On to benzalkonium chloride, for which the “disruption of mucociliary surfaces” value in the data set on mucociliary surfaces is “significant disruption of the mucociliary surfaces”.

These data come from patent US20260364175A1, “COMPOSITIONS FOR DRUG ADMINISTRATION” (Aegis Therapeutics, LLC, priority 2018, published 2026).
